Like-named read-outs stand apart in the source and are kept apart here.
Experiment: single oral dose pharmacokinetic study in healthy and NASH subjects
Assay type: in vivo, human
Conditions: for Cmax: po, read-out: Cmax, Mean
Description: The present Example was a randomized, dose ranging, single dose safety and pharmacokinetic study of 25HC3S administered to subjects with NASH and control healthy subjects. […] For each cohort, 10 subjects with NASH were enrolled which were further classified into cirrhotic and non-cirrhotic. Each subject received only one dose of study treatment. The second cohort was dosed after a review of safety and tolerability data from Cohort 1.

CL/F, Mean (200 mg single oral dose, Healthy): 171.25 ± 28.60 L/h
Plasma 25HC3S levels detectable up to, post-dose (Cohort 1 (50 mg) healthy subjects): up to 12 hours
AUC0-inf higher in NASH subjects (Cohort 2): approximately 20%
Geometric mean AUC0-12 and AUC0-last higher in NASH than healthy subjects (Cohort 2): approximately 30%
Plasma 25HC3S levels detectable up to, post-dose (Cohort 2 (200 mg) healthy subjects): up to 16 hours
geometric mean Cmax increase, NASH over healthy subjects (Cohorts 1 and 2): 18-24%
exposure (AUC parameters), increasing trends in NASH subjects (NASH vs healthy): up to 31%
half-life (human, plasma, oral, 200 mg, across both healthy and NASH subject groups, 50 and 200 mg, read-out: T1/2, range of mean values): 1.67 to 2.51 h
Cmax (human, plasma, 50 mg, 50 mg single oral dose, Healthy): 94 ± 27.3 ng/mL
Cmax (human, plasma, 200 mg, 200 mg single oral dose, Healthy): 260 ± 54.8 ng/mL
Structure (SMILES): C[C@H](CCCC(C)(C)O)[C@H]1CC[C@H]2[C@@H]3CC=C4C[C@@H](OS(=O)(=O)O)CC[C@]4(C)[C@H]3CC[C@]12C [25HC3S, 25-hydroxycholesterol-3-sulfate]
